In ChEMBL document CHEMBL2424562, “A comparative study of antimicrobial properties of cyclo(l-Pro- l-Asp) with its 2-ketopiperazine analog” (2013):
In brackets after ≈: the same amount, converted by molar mass.

Experiments:
Format in all cases: functional
Candida tropicalis [1] = experiment: Antifungal activity against Candida tropicalis MTCC 184 at MIC after 48 hrs by disc diffusion method
Penicillium expansum [2] = experiment: Antifungal activity against Penicillium expansum MTCC 2006 at 30 degC after 72 hrs by microbroth dilution technique; conditions: MTCC 2006, 72 h
Aspergillus flavus [3] = experiment: Antifungal activity against Aspergillus flavus MTCC 183 at MIC after 48 hrs by disc diffusion method
Candida tropicalis [4] = experiment: Antifungal activity against Candida tropicalis MTCC 184 at 37 degC after 48 hrs by microbroth dilution technique; conditions: MTCC 184, 48 h
Klebsiella pneumoniae [5] = experiment: Antibacterial activity against Klebsiella pneumoniae MTCC 109 after 24 hrs by two-fold dilution method; conditions: MTCC 109, 24 h
Klebsiella pneumoniae [6] = experiment: Antibacterial activity against Klebsiella pneumoniae MTCC 109 at MIC after overnight incubation by disc diffusion method
Staphylococcus aureus [7] = experiment: Antibacterial activity against Staphylococcus aureus MTCC 902 at MIC after overnight incubation by disc diffusion method
Penicillium expansum [8] = experiment: Antifungal activity against Penicillium expansum MTCC 2006 at MIC after 48 hrs by disc diffusion method
Aspergillus niger [9] = experiment: Antifungal activity against Aspergillus niger MTCC 277 at 30 degC after 72 hrs by microbroth dilution technique; conditions: MTCC 277, 72 h
Aspergillus flavus [10] = experiment: Antifungal activity against Aspergillus flavus MTCC 183 at 30 degC after 72 hrs by microbroth dilution technique; conditions: MTCC 183, 72 h
Escherichia coli [11] = experiment: Antibacterial activity against Escherichia coli MTCC 2622 at MIC after overnight incubation by disc diffusion method
Pseudomonas aeruginosa [12] = experiment: Antibacterial activity against Pseudomonas aeruginosa MTCC 2642 at MIC after overnight incubation by disc diffusion method
Trichophyton rubrum [13] = experiment: Antifungal activity against Trichophyton rubrum MTCC 296 at 30 degC after 72 hrs by microbroth dilution technique; conditions: MTCC 296, 72 h
Candida albicans [14] = experiment: Antifungal activity against Candida albicans MTCC 3017 at MIC after 48 hrs by disc diffusion method
Aspergillus fumigatus [15] = experiment: Antifungal activity against Aspergillus fumigatus MTCC 3376 at 30 degC after 72 hrs by microbroth dilution technique; conditions: MTCC 3376, 72 h
[16] = tested on: Staphylococcus epidermidis; experiment: Antibacterial activity against Staphylococcus epidermidis MTCC 435 at MIC after overnight incubation by disc diffusion method
[17] = tested on: Staphylococcus epidermidis; experiment: Antibacterial activity against Staphylococcus epidermidis MTCC 435 after 24 hrs by two-fold dilution method; conditions: MTCC 435, 24 h
Aspergillus niger [18] = experiment: Antifungal activity against Aspergillus niger MTCC 277 at MIC after 48 hrs by disc diffusion method
Aspergillus fumigatus [19] = experiment: Antifungal activity against Aspergillus fumigatus MTCC 3376 at MIC after 48 hrs by disc diffusion method
Aspergillus tubingensis [20] = experiment: Antifungal activity against Aspergillus tubingensis MTCC 2425 at MIC after 48 hrs by disc diffusion method
Aspergillus tubingensis [21] = experiment: Antifungal activity against Aspergillus tubingensis MTCC 2425 at 30 degC after 72 hrs by microbroth dilution technique; conditions: MTCC 2425, 72 h
Staphylococcus aureus [22] = experiment: Antibacterial activity against Staphylococcus aureus MTCC 902 after 24 hrs by two-fold dilution method; conditions: MTCC 902, 24 h
Candida albicans [23] = experiment: Antifungal activity against Candida albicans MTCC 3017 at 37 degC after 48 hrs by microbroth dilution technique; conditions: MTCC 3017, 48 h
Escherichia coli [24] = experiment: Antibacterial activity against Escherichia coli MTCC 2622 after 24 hrs by two-fold dilution method; conditions: MTCC 2622, 24 h
Bacillus subtilis [25] = experiment: Antibacterial activity against Bacillus subtilis MTCC 2756 at MIC after overnight incubation by disc diffusion method
Trichophyton rubrum [26] = experiment: Antifungal activity against Trichophyton rubrum MTCC 296 at MIC after 48 hrs by disc diffusion method
Pseudomonas aeruginosa [27] = experiment: Antibacterial activity against Pseudomonas aeruginosa MTCC 2642 after 24 hrs by two-fold dilution method; conditions: MTCC 2642, 24 h
Bacillus subtilis [28] = experiment: Antibacterial activity against Bacillus subtilis MTCC 2756 after 24 hrs by two-fold dilution method; conditions: MTCC 2756, 24 h
Penicillium expansum [29] = experiment: Ratio of amphotericin B MIC to compound MIC for Penicillium expansum MTCC 2006

MIC (Penicillium expansum [2]) | MIC (Candida tropicalis [4]) | MIC (Aspergillus niger [9]) | MIC (Aspergillus flavus [10]) | MIC (Trichophyton rubrum [13]) | MIC (Aspergillus fumigatus [15]) | SMILES | diameter of the inhibition zone (DIZ) (Candida tropicalis [1]) | diameter of the inhibition zone (DIZ) (Aspergillus flavus [3]) | MIC (Klebsiella pneumoniae [5]) | diameter of the inhibition zone (DIZ) (Klebsiella pneumoniae [6]) | diameter of the inhibition zone (DIZ) (Staphylococcus aureus [7]) | diameter of the inhibition zone (DIZ) (Penicillium expansum [8]) | diameter of the inhibition zone (DIZ) (Escherichia coli [11]) | diameter of the inhibition zone (DIZ) (Pseudomonas aeruginosa [12]) | diameter of the inhibition zone (DIZ) (Candida albicans [14]) | diameter of the inhibition zone (DIZ) [16] | MIC [17] | diameter of the inhibition zone (DIZ) (Aspergillus niger [18]) | diameter of the inhibition zone (DIZ) (Aspergillus fumigatus [19]) | diameter of the inhibition zone (DIZ) (Aspergillus tubingensis [20]) | further results
8 mg/L (≈ 37.7 µM) | 4 mg/L (≈ 18.8 µM) | 16 mg/L (≈ 75.4 µM) | 16 mg/L (≈ 75.4 µM) | 2 mg/L (≈ 9.42 µM) | 32 mg/L (≈ 151 µM) | O=C(O)C[C@@H]1NC(=O)[C@@H]2CCCN2C1=O | 33 mm | 28 mm | 8 mg/L (≈ 37.7 µM) | 31 mm | 21 mm | 29 mm | 26 mm | 26 mm | 26 mm | 24 mm | 64 mg/L (≈ 302 µM) | 22 mm | 23 mm | 25 mm | Ratio (Penicillium expansum [29]): 8; MIC (Aspergillus tubingensis [21]): 32 mg/L (≈ 151 µM); MIC (Staphylococcus aureus [22]): 64 mg/L (≈ 302 µM); MIC (Candida albicans [23]): 8 mg/L (≈ 37.7 µM); MIC (Escherichia coli [24]): 16 mg/L (≈ 75.4 µM); diameter of the inhibition zone (DIZ) (Bacillus subtilis [25]): 24 mm; diameter of the inhibition zone (DIZ) (Trichophyton rubrum [26]): 38 mm; MIC (Pseudomonas aeruginosa [27]): 16 mg/L (≈ 75.4 µM); MIC (Bacillus subtilis [28]): 32 mg/L (≈ 151 µM)
64 mg/L (≈ 69.3 µM) | 8 mg/L (≈ 8.66 µM) | 32 mg/L (≈ 34.6 µM) | 16 mg/L (≈ 17.3 µM) | 4 mg/L (≈ 4.33 µM) | 16 mg/L (≈ 17.3 µM) | C[C@@H]1[C@H](O)[C@@H](C)/C=C/C=C/C=C/C=C/C=C/C=C/C=C/[C@H](O[C@@H]2O[C@H](C)[C@@H](O)[C@H](N)[C@@H]2O)C[C@@H]2O[C@](O)(C[C@@H](O)C[C@@H](O)[C@H](O)CC[C@@H](O)C[C@@H](O)CC(=O)O[C@H]1C)C[C@H](O)[C@H]2C(=O)O [AMPHOTERICIN B] | 24 mm | 22 mm | – | – | – | 20 mm | – | – | 31 mm | – | – | 26 mm | 25 mm | 30 mm | MIC (Aspergillus tubingensis [21]): 64 mg/L (≈ 69.3 µM); MIC (Candida albicans [23]): 16 mg/L (≈ 17.3 µM); diameter of the inhibition zone (DIZ) (Trichophyton rubrum [26]): 29 mm
– | – | – | – | – | – | O=C(O)c1cn(C2CC2)c2cc(N3CCNCC3)c(F)cc2c1=O [CIPROFLOXACIN] | – | – | 0.5 mg/L (≈ 1.51 µM) | 33 mm | 31 mm | – | 32 mm | 33 mm | – | 31 mm | 0.25 mg/L (≈ 0.754 µM) | – | – | – | MIC (Staphylococcus aureus [22]): 1 mg/L (≈ 3.02 µM); diameter of the inhibition zone (DIZ) (Bacillus subtilis [25]): 30 mm; MIC (Pseudomonas aeruginosa [27]): 1 mg/L (≈ 3.02 µM); MIC (Bacillus subtilis [28]): 2 mg/L (≈ 6.04 µM)

SMILES | MIC (Penicillium expansum [2]) | MIC (Candida tropicalis [4]) | MIC (Aspergillus niger [9]) | MIC (Aspergillus flavus [10]) | MIC (Trichophyton rubrum [13]) | MIC (Aspergillus fumigatus [15]) | diameter of the inhibition zone (DIZ) (Candida tropicalis [1]) | diameter of the inhibition zone (DIZ) (Aspergillus flavus [3]) | MIC (Klebsiella pneumoniae [5]) | diameter of the inhibition zone (DIZ) (Klebsiella pneumoniae [6]) | diameter of the inhibition zone (DIZ) (Staphylococcus aureus [7]) | diameter of the inhibition zone (DIZ) (Penicillium expansum [8]) | diameter of the inhibition zone (DIZ) (Escherichia coli [11]) | diameter of the inhibition zone (DIZ) (Pseudomonas aeruginosa [12]) | diameter of the inhibition zone (DIZ) (Candida albicans [14]) | diameter of the inhibition zone (DIZ) [16] | MIC [17] | diameter of the inhibition zone (DIZ) (Aspergillus niger [18]) | diameter of the inhibition zone (DIZ) (Aspergillus fumigatus [19]) | diameter of the inhibition zone (DIZ) (Aspergillus tubingensis [20]) | further results
O=C(O)C[C@@H]1NC[C@@H]2CCCN2C1=O | 500 mg/L (≈ 2520 µM) | 125 mg/L (≈ 631 µM) | 64 mg/L (≈ 323 µM) | 32 mg/L (≈ 161 µM) | 8 mg/L (≈ 40.4 µM) | 250 mg/L (≈ 1260 µM) | 14 mm | 24 mm | 32 mg/L (≈ 161 µM) | 17 mm | 16 mm | 13 mm | 19 mm | 14 mm | 15 mm | 23 mm | 64 mg/L (≈ 323 µM) | 19 mm | 18 mm | 21 mm | MIC (Aspergillus tubingensis [21]): 125 mg/L (≈ 631 µM); MIC (Staphylococcus aureus [22]): 250 mg/L (≈ 1260 µM); MIC (Candida albicans [23]): 250 mg/L (≈ 1260 µM); MIC (Escherichia coli [24]): 64 mg/L (≈ 323 µM); diameter of the inhibition zone (DIZ) (Bacillus subtilis [25]): 15 mm; diameter of the inhibition zone (DIZ) (Trichophyton rubrum [26]): 28 mm; MIC (Pseudomonas aeruginosa [27]): 125 mg/L (≈ 631 µM); MIC (Bacillus subtilis [28]): 125 mg/L (≈ 631 µM)
